Data as given in patent US20120149572A1, “USE OF AGROCHEMICAL MIXTURES FOR INCREASING THE HEALTH OF A PLANT” (BASF SE, priority 2009, published 2012).

Tested on: cotyledons
Test: Growth of excised cucumber cotyledons (fresh biomass) in treatment solution
Assay type: in vivo, Cucumbers
Details: for Mean cotyledon biomass: 3 days in the dark at 25° C., 20 cotyledons per treatment; for Observed efficacy (%): % biomass increase compared to 0.5% DMSO control; for growth stimulation of the cotyledons: applied alone
Protocol: The effect of dicamba as an example for compound (I), pyraclostrobin as an example for compound (II) and the respective mixture comprising both compounds on the growth of cotyledons, as one indicator of a plant's health, was evaluated. Cucumbers were sown and germinated in the dark at 25° C. for 4 days. Subsequently, 20 cotyledons per treatment were cut and placed in a Petri dish containing 20 ml of the treatment solution. Control cotyledons were treated with the 0.5% DMSO solution. Following the incubation in the dark at 25° C. for 3 days the cotyledons were weight and the fresh biomass recorded (table 1).
The efficacy of the tested compounds was calculated as % of biomass increase compared to the control:
E=(a/b−1)*100 • a corresponds to the biomass (mg) of the treated cotyledons after incubation; • b corresponds to the biomass (mg) of untreated cotyledons after incubation (control).
The expected efficacies of the combinations of the active ingredients were estimated using Colby's formula (Colby, S. R., Calculating synergistic and antagonistic responses of herbicide combinations, Weeds, 15, pp. 20-22, 1967) and compared with the observed efficacies.
Colby's formula: E=x+y−x*y/100 • E expected efficacy, expressed in % of the untreated control, when using the mixture comprising the compounds A and B at the concentrations a and b; • x efficacy, expressed in % of the untreated control, when using compound A at the concentration a; • y efficacy, expressed in % of the untreated control, when using compound B at the concentration b.

| SMILES | Mean cotyledon biomass (2 ppm in 0.5% DMSO) [mg] | Observed efficacy (%) (2 ppm) | growth stimulation of the cotyledons | Mean cotyledon biomass (1.25 ppm in 0.5% DMSO) [mg] | Observed efficacy (%) (1.25 ppm) |
| --- | --- | --- | --- | --- | --- |
| COC(=O)N(OC)c1ccccc1COc1ccn(-c2ccc(Cl)cc2)n1 [Pyraclostrobin, pyraclostrobin] | 67.7 | −3.9 | no growth stimulation | – | – |
| COc1c(Cl)ccc(Cl)c1C(=O)O [Dicamba, dicamba] | – | – | no growth stimulation | 69.9 | −0.8 |
